Drawing on patent publication US20250313548A1 (Actio Biosciences, Inc., priority 2023, published 2025), this text covers IC50 for 42 molecules.

Chain of human, KCNT1 (Q5JUK3 whole entry): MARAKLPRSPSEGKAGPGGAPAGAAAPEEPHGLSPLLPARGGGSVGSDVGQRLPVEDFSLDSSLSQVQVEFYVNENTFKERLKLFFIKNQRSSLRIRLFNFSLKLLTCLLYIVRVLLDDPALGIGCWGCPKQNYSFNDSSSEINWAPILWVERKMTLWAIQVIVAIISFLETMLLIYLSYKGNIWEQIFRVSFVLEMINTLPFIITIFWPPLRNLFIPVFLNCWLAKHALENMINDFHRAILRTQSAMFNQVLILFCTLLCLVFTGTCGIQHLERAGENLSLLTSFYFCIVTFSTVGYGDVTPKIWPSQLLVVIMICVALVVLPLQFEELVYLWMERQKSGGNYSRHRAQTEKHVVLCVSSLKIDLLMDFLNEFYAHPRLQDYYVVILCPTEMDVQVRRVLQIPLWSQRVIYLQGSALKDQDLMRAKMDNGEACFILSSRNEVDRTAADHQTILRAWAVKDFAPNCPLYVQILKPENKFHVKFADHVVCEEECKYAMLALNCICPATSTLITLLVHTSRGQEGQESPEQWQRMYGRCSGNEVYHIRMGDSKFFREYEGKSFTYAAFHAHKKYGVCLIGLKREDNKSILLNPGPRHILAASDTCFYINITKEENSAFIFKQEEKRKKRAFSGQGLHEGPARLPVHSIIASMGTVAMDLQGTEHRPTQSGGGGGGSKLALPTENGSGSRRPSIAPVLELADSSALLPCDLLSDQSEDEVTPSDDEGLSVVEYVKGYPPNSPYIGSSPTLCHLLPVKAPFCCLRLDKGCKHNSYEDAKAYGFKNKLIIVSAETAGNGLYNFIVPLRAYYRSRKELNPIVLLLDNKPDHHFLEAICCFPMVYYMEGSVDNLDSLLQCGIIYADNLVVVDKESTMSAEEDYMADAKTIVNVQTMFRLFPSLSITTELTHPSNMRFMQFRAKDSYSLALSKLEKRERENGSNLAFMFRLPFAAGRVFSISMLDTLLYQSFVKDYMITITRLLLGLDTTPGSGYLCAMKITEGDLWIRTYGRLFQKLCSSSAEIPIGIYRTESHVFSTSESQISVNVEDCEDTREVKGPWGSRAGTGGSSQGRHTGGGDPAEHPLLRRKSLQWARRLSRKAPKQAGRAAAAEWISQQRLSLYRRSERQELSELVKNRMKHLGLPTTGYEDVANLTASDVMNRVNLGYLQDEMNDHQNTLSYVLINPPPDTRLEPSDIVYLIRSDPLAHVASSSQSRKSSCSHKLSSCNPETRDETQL

The assay addresses human, KCNT1 (Homo sapiens (Human), UniProt Q5JUK3). Kind of assay: FLIPR Tl/K Flux Assay. The conditions noted are these: HEK293 cells stably expressing human KCNT1; Tl+ flux stimulated with EC80 of agonist Loxapine. In kind it is cell-based. An outline of the steps: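 Inhibition values come from a Hill-equation fit of % inhibition versus log concentration, using normalized fluorescence (Fmax/Fmin) over a 160 s read. The read followed stimulation with Tl+ plus EC80 agonist loxapine after 30 min compound pre-incubation at 25 °C. Cells were KCNT1-expressing HEK293, dye-loaded 1 h in pH 7.4 HEPES/HBSS with 5 mM probenecid.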
In the case of `COc1cc(-c2nc3c(o2)CCC[C@H]3NC(=O)c2cncc(C(F)(F)F)n2)c(F)cn1` [Compound I-503b], the IC50 was > 1 µM.
Next, `N#Cc1cc(F)cc(C(=O)N[C@H]2CCCCn3nc(-c4ccnc(C5CC5)c4)cc32)c1` [Compound I-265a, (S)-3-Cyano-N-(2-(2-cyclopropylpyridin-4-yl)-5,6,7,8-tetrahydro-4H-pyrazolo[1,5-a]azepin-4-yl)-5-fluorobenzamide]: < 0.25 µM; `O=C(N[C@H]1CCCn2nc(-c3ccnc(C(F)(F)F)c3)cc21)c1cccc(F)c1F` [Compound I-405a]: < 0.25 µM; `O=C(N[C@H]1CCCc2oc(-c3ccnc(C4CC4)c3)nc21)c1cccc(F)c1` [Compound I-131a, (S)-N-(2-(2-Cyclopropylpyridin-4-yl)-4,5,6,7-tetrahydrobenzo[d]oxazol-4-yl)-3-fluorobenzamide]: < 0.25 µM.
In the case of `O=C(N[C@H]1CCCc2nc(-c3ccnc(C4CC4)c3)oc21)c1cc(Cl)cc(Cl)c1` [Compound I-153a, (S)-3,5-Dichloro-N-(2-(2-cyclopropylpyridin-4-yl)-4,5,6,7-tetrahydrobenzo[d]oxazol-7-yl)benzamide] it was < 0.25 µM; in that of `Cc1cnc(C(F)(F)F)cc1-c1cc2n(n1)CCCC[C@H]2NC(=O)c1cc(C(F)(F)F)nn1C` [Compound I-311b], > 1 µM.
Take `Cc1cc(C(=O)N[C@H]2CCCn3nc(-c4ccnc(C(F)(F)F)c4)cc32)n(-c2ccccc2)n1` [Compound I-448a]: the IC50 was < 0.25 µM.
In the case of `COc1cc(-c2nc3c(o2)[C@H](NC(=O)c2cncc(C(F)(F)F)n2)CCC3)ccn1` [Compound I-512b] it was > 1 µM; in that of `Cc1cccc(C(=O)N[C@@H]2CCc3nn(-c4ccnc(C(F)(F)F)c4)cc32)c1` [Compound I-97b], > 1 µM.
For the molecule `CCOc1cc(-n2cc3c(n2)CCCC3NC(=O)c2cccc(C(F)(F)F)c2)ccn1` (racemic) [Compound I-18, (rac)-N-(2-(2-Ethoxypyridin-4-yl)-4,5,6,7-tetrahydro-2H-indazol-4-yl)-3-(trifluoromethyl)benzamide], the IC50 is < 0.25 µM.
In the case of `Cn1nc(C(F)(F)F)cc1C(=O)N[C@@H]1CCc2nn(-c3ccnc(C4CCC4)c3)cc21` [Compound I-72b] it was > 1 µM; in that of `Cn1nc(C(F)(F)F)cc1C(=O)N[C@H]1CCCc2cnc(-c3ccnc(C(F)(F)F)c3)cc21` [Compound I-116a], < 0.25 µM; in that of `Cn1nc(C(F)(F)F)cc1C(=O)N[C@H]1CCCn2nc(-c3ccnc(C4(C)CC4)c3)cc21` [Compound I-459a], < 0.25 µM.
As to `O=C(N[C@H]1CCCn2nc(-c3ccnc(C(F)(F)F)c3)cc21)c1cc2n(n1)CCC2` [Compound I-368a], the 50% inhibitory concentration (IC50) is > 1 µM.
Next, `Cn1nc(C2CC2)nc1C(=O)N[C@H]1CCn2nc(-c3ccnc(C(F)(F)F)c3)cc21` [Compound I-224a, (S)-3-Cyclopropyl-1-methyl-N-(2-(2-(trifluoromethyl)pyridin-4-yl)-5,6-dihydro-4H-pyrrolo[1,2-b]pyrazol-4-yl)-1H-1,2,4-triazole-5-carboxamide]: < 0.25 µM; `Cc1cc(C#N)cc(C(=O)N[C@H]2CCCn3nc(-c4ccnc(C(F)(F)F)c4)cc32)c1` [Compound I-418a]: < 0.25 µM; `O=C(N[C@H]1CCCn2nc(-c3cc(C(F)(F)F)ncc3F)nc21)c1cncc(C(F)(F)F)n1` [Compound I-182a, (S)-N-(2-(5-Fluoro-2-(trifluoromethyl)pyridin-4-yl)-5,6,7,8-tetrahydro-[1,2,4]triazolo[1,5-a]pyridin-8-yl)-6-(trifluoromethyl)pyrazine-2-carboxamide]: 0.5 to 1 µM.
Take `N#Cc1cccc(C(=O)N[C@H]2CCn3cc(-c4ccnc(C(F)(F)F)c4)cc32)c1` (stereo in doubt) [Compound I-276a, 3-Cyano-N-(6-(2-(trifluoromethyl)pyridin-4-yl)-2,3-dihydro-1H-pyrrolizin-1-yl)benzamide]: the IC50 is < 0.25 µM.
Regarding `Cn1nc(C(F)(F)F)nc1C(=O)N[C@@H]1CCCc2oc(-c3ccnc(C4CC4)c3)nc21` [Compound I-504b], the IC50 is > 1 µM.
Next, `Cn1nc(C(F)(F)F)nc1C(=O)N[C@H]1CCCc2oc(-c3cc(C4CC4)ncc3F)nc21` [Compound I-191a, (S)—N-(2-(2-Cyclopropyl-5-fluoropyridin-4-yl)-4,5,6,7-tetrahydrobenzo[d]oxazol-4-yl)-1-methyl-3-(trifluoromethyl)-1H-1,2,4-triazole-5-carboxamide]: < 0.25 µM; `O=C(N[C@H]1CCc2cnc(-c3ccnc(C(F)(F)F)c3)cc21)c1cc2cccnn2c1` [Compound I-340a]: > 1 µM.
With `O=C(N[C@H]1CCn2nc(-c3ccnc(C(F)(F)F)c3)cc21)C12CC(C(F)(F)F)(C1)C2` [Compound I-138a, (S)-3-(Trifluoromethyl)-N-(2-(2-(trifluoromethyl)pyridin-4-yl)-5,6-dihydro-4H-pyrrolo[1,2-b]pyrazol-4-yl)bicyclo[1.1.1]pentane-1-carboxamide], the IC50 was < 0.25 µM.
Next, `Cn1nc(C(F)(F)F)nc1C(=O)N[C@@H]1CCn2nc(-c3ccnc(C(C)(F)F)c3)cc21` [Compound I-480b]: 0.5 to 1 µM; `COc1cc(-c2cc3n(n2)CC[C@H]3NC(=O)c2cc(C(F)(F)F)nn2C)ccn1` [Compound I-427b]: > 1 µM; `COc1cncc(C(=O)N[C@H]2CCn3nc(-c4ccnc(C(F)(F)F)c4)cc32)n1` [Compound I-207a, (S)-6-Methoxy-N-(2-(2-(trifluoromethyl)pyridin-4-yl)-5,6-dihydro-4H-pyrrolo[1,2-b]pyrazol-4-yl)pyrazine-2-carboxamide]: < 0.25 µM.
The molecule `Cc1cc(C)cc(C(=O)N[C@@H]2CCc3nn(-c4ccnc(C(F)(F)F)c4)cc32)c1` [Compound I-372b] showed an IC50 of 0.5 to 1 µM.
In the case of `Cc1c(-c2ccnc(C(F)(F)F)c2)nn2c1[C@@H](NC(=O)c1cc(C(F)(F)F)nn1C)CCC2` [Compound I-44a] it was < 0.25 µM; in that of `O=C(N[C@H]1CCn2nc(-c3cc(C(F)(F)F)ncc3F)cc21)C12CC(CC(F)(F)F)(C1)C2` [Compound I-539a], < 0.25 µM.
Next, `O=C(N[C@H]1CCCn2nc(-c3ccnc(C(F)(F)F)c3)cc21)c1cncc(C(F)(F)F)n1` [Compound I-437a]: < 0.25 µM.
Next, `Cc1cc(Cl)ccc1C(=O)N[C@@H]1CCc2nn(-c3ccnc(C(F)(F)F)c3)cc21` [Compound I-95b]: > 1 µM; `Cn1cc(C(F)(F)F)nc1C(=O)NC1CCCc2nn(-c3ccnc(C(F)(F)F)c3)cc21` (racemic) [Compound I-24, (rac)-1-Methyl-4-(trifluoromethyl)-N-(2-(2-(trifluoromethyl)pyridin-4-yl)-4,5,6,7-tetrahydro-2H-indazol-4-yl)-1H-imidazole-2-carboxamide]: 0.5 to 1 µM.
Turning to `Cn1nc(C(F)(F)F)nc1C(=O)N[C@H]1CCCc2oc(-c3ccnc(C4CC4)c3)nc21` [Compound I-229a, (S)-N-(2-(2-Cyclopropylpyridin-4-yl)-4,5,6,7-tetrahydrobenzo[d]oxazol-4-yl)-1-methyl-3-(trifluoromethyl)-1H-1,2,4-triazole-5-carboxamide], the IC50 is < 0.25 µM.
Next, `CCOc1cc(F)cc(C(=O)N[C@H]2CCn3nc(-c4cc(OC)ncc4F)cc32)c1` [Compound I-574a, (S)-3-Ethoxy-5-fluoro-N-(2-(5-fluoro-2-methoxypyridin-4-yl)-5,6-dihydro-4H-pyrrolo[1,2-b]pyrazol-4-yl)benzamide]: < 0.25 µM; `COc1cc(C(=O)N[C@H]2CCc3cnc(-c4ccnc(C(F)(F)F)c4)cc32)ccn1` [Compound I-196a, (S)-2-Methoxy-N-(3-(2-(trifluoromethyl)pyridin-4-yl)-6,7-dihydro-5H-cyclopenta[c]pyridin-5-yl)isonicotinamide]: 0.5 to 1 µM; `O=C(N[C@H]1CCCn2nc(-c3ccnc(C(F)(F)F)c3)cc21)c1cc(Cl)cc(C(F)(F)F)c1` [Compound I-352a]: < 0.25 µM.
Next, `Cn1nc(C(F)(F)F)nc1C(=O)N[C@H]1CCn2nc(-c3cc(C(F)(F)F)ncc3F)cc21` [Compound I-548a, (S)—N-(2-(5-Fluoro-2-(trifluoromethyl)pyridin-4-yl)-5,6-dihydro-4H-pyrrolo[1,2-b]pyrazol-4-yl)-1-methyl-3-(trifluoromethyl)-1H-1,2,4-triazole-5-carboxamide]: < 0.25 µM.
Regarding `Cc1nn(C(F)(F)F)cc1C(=O)N[C@H]1CCn2nc(-c3ccnc(C(F)(F)F)c3)cc21` [Compound I-556a], the IC50 is < 0.25 µM.
On to `COc1cc(-c2nc3c(o2)[C@@H](NC(=O)c2ccnc(OC(F)(F)F)c2)CCC3)c(Cl)cn1` [Compound I-163a], for which the concentration for half-maximal inhibition (IC50) was < 0.25 µM.
Regarding `O=C(N[C@H]1CCc2nn(-c3ccnc(C(F)(F)F)c3)cc21)C1CCC(F)(F)CC1` [Compound I-106a], the IC50 is < 0.25 µM.
As to `O=C(N[C@H]1CCn2nc(-c3ccnc(C4CC4)c3)cc21)c1ccnc(OC(F)(F)F)c1` [Compound I-543a, (S)-N-(2-(2-Cyclopropylpyridin-4-yl)-5,6-dihydro-4H-pyrrolo[1,2-b]pyrazol-4-yl)-2-(trifluoromethoxy)isonicotinamide], the IC50 was < 0.25 µM.
In the case of `O=C(N[C@H]1CCn2nc(-c3ccnc(C(F)(F)F)c3)cc21)c1cn(C(F)(F)F)nc1C(F)F` [Compound I-484a, (S)-3-(Difluoromethyl)-1-(trifluoromethyl)-N-(2-(2-(trifluoromethyl)pyridin-4-yl)-5,6-dihydro-4H-pyrrolo[1,2-b]pyrazol-4-yl)-1H-pyrazole-4-carboxamide] it was < 0.25 µM; in that of `O=C(NC1CCCc2nn(-c3ccnc(C(F)(F)F)c3)cc21)c1ccncc1` (racemic) [Compound I-36, (rac)-N-(2-(2-(Trifluoromethyl)pyridin-4-yl)-4,5,6,7-tetrahydro-2H-indazol-4-yl)isonicotinamide], > 1 µM.

The IC50 is the concentration at which inhibition is half-maximal. A high value points to a need for much substance.
